Among the data in the NIST ThermoML archive (doi:10.1021/je900669t) are refractive index, mass density and Normal boiling temperature values, retold here.

Data set [1] in a line: refractive index (Na D-line) (dimensionless). To be noted: 293.15 K; 101.33 kPa; Liquid; Standard Abbe refractometry.
The conditions of data set [2]: Liquid; for mass density: 298.15 K, 101.33 kPa; for Normal boiling temperature: Ebulliometric method (Recirculating still).

± gives the expanded uncertainty stated by the source.

As for `C1CCCCC1` [cyclohexane], the refractive index in data set [1] is 1.4259 ± 0.0005. Besides, in data set [2], the mass density is listed as 779.6 ± 7.6 kg/m3 and the Normal boiling temperature stood at 80.8 ± 0.2 °C.
In the case of `CC(=O)O` [acetic acid], the refractive index in data set [1] amounted to 1.3715 ± 0.0005. For the same molecule, in data set [2], the mass density amounted to 1046.9 ± 1.6 kg/m3 and the Normal boiling temperature turned out to be 118.29 ± 0.2 °C.
For `CC(=O)CC(C)=O` [2,4-pentanedione], in data set [1], the refractive index is recorded as 1.4489 ± 0.0005. In data set [2], the mass density turned out to be 971.7 ± 1.4 kg/m3 and the Normal boiling temperature stood at 140.5 ± 0.2 °C.
